Assay results reported in publication PMC8373983, “Effect of salinity on the zinc(II) binding efficiency of siderophore functional groups and implications for salinity tolerance mechanisms in barley” (Scientific Reports, 2021).
Read-outs that look alike come from different tables or passages of the source. One block for each compound: values may come before it.

Key:
[1] = Zinc(II)-ligand stability constants, potentiometric titration in NaCl; assay type: binding
Description: (§1) Potentiometric measurements were carried out at T = 298.1 ± 0.1 K in thermostatted cells. The setup consisted of a Metrohm model 888 Titrando apparatus controlled by Metrohm TiAMO 1.2 software equipped with a combined gel electrode (VWR model 662 1759). Estimated precision was 0.2 mV and 0.003 ml for the electromotive force and titrant volume readings, respectively. All the potentiometric titrations were carried out under magnetic stirring and bubbling purified presaturated N2 through the solution to exclude O2 and CO2.
(§2) A 30 ml solution containing each ligand ([L] = 5 – 10 mM), NaCl and HCl was titrated with standard NaOH solutions. For the zinc(II)/ligand systems, the titrant solutions consisted of different amounts of ligand ([L] = 5 − 10 mM), zinc(II) ([Zn] = 0.5—5 mM) and a suitable amount of HCl and NaCl. All the measurements were carried out with an excess of the ligand, with respect to zinc(II) and at different zinc(II):ligand molar ratios. The selection of ratios investigated was determined by simulating titrations using Hyperquad Simulation and Speciation computer software (HySS)[41]. [Zn] and [L] were negligible compared to the background electrolyte concentrations. […] To account for the influence of zinc(II) hydrolysis in the zinc(II)/ligand systems, zinc(II) titrations were carried out separately at each ionic strength to determine the hydroxide constants so that these constants could be included in the equilibrium model used to refine the titration data. In these titrations, the zinc(II) concentration in the analyte solution was 0.7 mM.
(§3) Before each experiment, independent titrations of strong acid solutions with standard base were carried out under the same medium and ionic strength conditions as the systems to be investigated, with the aim of determining the electrode potential (E^0’) using GLEE software. In this way, the pH scale used was the […], pH = -log [H]^+, where [H]^+ is the free proton concentration. For each titration, approximately 80 to 100 data points were collected. The equilibrium state during titrations was checked by confirming the time required to reach equilibrium.
(§4) The software program Hyperquad was used to determine the equilibrium model and to calculate pKa and stability constants from the potentiometric data set[43]. For each set of pKa constants or zinc(II):ligand ratio studied, at least two repeat titrations were performed. The titration curves for each system were treated as a single set when refining the stability constants. This meant that the refinement procedure was run on both curves at the same time to derive a single set of constants. The error reported on the stability constants is the standard deviation given in the Hyperquad output file. Examples of Hyperquad files for the zinc(II)/PYR system are provided on the Zenodo repository (https://doi.org/10.5281/zenodo.4641710).
(§5) The ionic strength dependence of the stability constants was studied with the modified version of the Extended Debye–Hückel equation[28]. The Monte Carlo method, as described by Hu et al.[43], was used to estimate 95% confidence intervals on the parameters of ionic strength dependence; for each species, predicted stability constants were resampled using an inverse of the cumulative normal distribution function to give sets of simulated data from which the unknown parameters were optimized. An example Excel calculation file for the application of the modified version of the Extended Debye–Hückel equation to the zinc(II)/PYR system (including the calculation of error on parameters of ionic strength dependence) has been uploaded to the Zenodo repository (https://doi.org/10.5281/zenodo.4641710).
(§6) To quantify the improvement of using a direct vs. indirect method for studying ionic strength dependence, the Davies equation (Eq. 3) was applied to the zinc(II)/PYR data. Speciation calculations for a [Zn] = 10^–6 M and [L] = 10^–5 M system at infinite dilution were conducted with the aid of HySS. […]

[2] = Ligand protonation constants, potentiometric titration in NaCl; assay type: physicochemical; conditions: T = 298.1 K
Description: as §1, §2, §3, §4, §5, §6

[3] = cited from earlier work
[4] = design: method as in earlier work; conditions: cited from earlier work
[5] = parameter of ionic strength dependence, NaCl
[6] = parameter of ionic strength dependence

stability of the 1:1 zinc(II) species below/above the equivalent PYR and GLY complexes ([1]; 1:1 zinc(II) complex): 3.5–4 logβ units
decrease of the 1:1 zinc(II) stability constant ([1]; between 0.00 and 1.00 M NaCl): 0.79 logβ units
decrease of the 1:1 zinc(II) stability constant ([1]; between 0.05 and 1.00 M NaCl): 14%
log β, H+ + L = HL ([2]; 0.05 M NaCl): 9.28 ± 0.01
log β, H+ + L = HL ([2]; 0.15 M NaCl): 9.06 ± 0.01
log β, H+ + L = HL ([2]; 0.30 M NaCl): 9.10 ± 0.01
log β, H+ + L = HL ([2]; 0.70 M NaCl): 9.04 ± 0.01
log β, H+ + L = HL ([2]; 1.00 M NaCl): 9.07 ± 0.01
logβ^0, H+ + L = HL ([2]; intrinsic, modified Extended Debye–Hückel fit (direct)): 9.376 ± 0.001
C, H+ + L = HL [2, 5]: 0.085 ± 0.001
Compound: CC(=O)NO [AHA, acetohydroxamic acid]
log β, Zn2+ + 2L = ZnL2 ([1]; 0.05 M NaCl, T = 298.1 K): 9.60±0.01
log β, Zn2+ + 2OH- + L- = ZnOH2L- ([1]; 0.05 M NaCl, T = 298.1 K): -13.60±0.04
log β, Zn2+ + L = ZnL (1:1) ([1]; 0.05 M NaCl, T = 298.1 K): 5.32±0.01
log β, Zn2+ + OH- + L- = ZnOHL ([1]; 0.05 M NaCl, T = 298.1 K): -3.22±0.04
log β, Zn2+ + 2L = ZnL2 ([1]; 0.15 M NaCl, T = 298.1 K): 9.16±0.01
log β, Zn2+ + 2OH- + L- = ZnOH2L- ([1]; 0.15 M NaCl, T = 298.1 K): -13.65±0.01
log β, Zn2+ + L = ZnL (1:1) ([1]; 0.15 M NaCl, T = 298.1 K): 5.10±0.01
log β, Zn2+ + OH- + L- = ZnOHL ([1]; 0.15 M NaCl, T = 298.1 K): -3.64±0.02
log β, Zn2+ + 2L = ZnL2 ([1]; 0.30 M NaCl, T = 298.1 K): 9.11±0.01
log β, Zn2+ + 2OH- + L- = ZnOH2L- ([1]; 0.30 M NaCl, T = 298.1 K): -13.21±0.07
log β, Zn2+ + L = ZnL (1:1) ([1]; 0.30 M NaCl, T = 298.1 K): 5.01±0.03
log β, Zn2+ + OH- + L- = ZnOHL ([1]; 0.30 M NaCl, T = 298.1 K): -4.22±0.08
log β, Zn2+ + 2L = ZnL2 ([1]; 0.70 M NaCl, T = 298.1 K): 8.79±0.01
log β, Zn2+ + 2OH- + L- = ZnOH2L- ([1]; 0.70 M NaCl, T = 298.1 K): -14.07±0.02
log β, Zn2+ + L = ZnL (1:1) ([1]; 0.70 M NaCl, T = 298.1 K): 4.87±0.01
log β, Zn2+ + OH- + L- = ZnOHL ([1]; 0.70 M NaCl, T = 298.1 K): -4.07±0.02
log β, Zn2+ + 2L = ZnL2 ([1]; 1.00 M NaCl, T = 298.1 K): 8.79±0.01
log β, Zn2+ + 2OH- + L- = ZnOH2L- ([1]; 1.00 M NaCl, T = 298.1 K): -13.96±0.01
log β, Zn2+ + L = ZnL (1:1) ([1]; 1.00 M NaCl, T = 298.1 K): 4.82±0.01
log β, Zn2+ + OH- + L- = ZnOHL ([1]; 1.00 M NaCl, T = 298.1 K): -4.41±0.04
logβ0, Zn2+ + 2L = ZnL2 ([1]; intrinsic, modified Extended Debye–Hückel fit (direct), T = 298.1 K): 10.021±0.001
C, Zn2+ + 2L = ZnL2 [1, 5]: -0.052±0.002
C, Zn2+ + 2OH- + L- = ZnOH2L- [1, 5]: 0.571±0.017
C, Zn2+ + OH- + L- = ZnOHL [1, 5]: 1.2095±0.027

Compound: CC(=O)N(O)CCCCCNC(=O)CCC(=O)N(O)CCCCCNC(=O)CCC(=O)N(O)CCCCCN [DFOB, desferrioxamine B]
log β, Zn2+ + 2H+ + L3- = ZnH2L+ ([3]; 0.05 M NaCl, T = 298.1 K): 29.30±0.13
log β, Zn2+ + H+ + L3- = ZnHL ([3]; 0.05 M NaCl, T = 298.1 K): 21.55±0.11
log β, Zn2+ + L3- = ZnL- ([3]; 0.05 M NaCl, T = 298.1 K): 11.67±0.06
log β, Zn2+ + 2H+ + L3- = ZnH2L+ ([3]; 0.15 M NaCl, T = 298.1 K): 27.81±0.05
log β, Zn2+ + H+ + L3- = ZnHL ([3]; 0.15 M NaCl, T = 298.1 K): 19.85±0.04
log β, Zn2+ + L3- = ZnL- ([3]; 0.15 M NaCl, T = 298.1 K): 9.91±0.02
log β, Zn2+ + 2H+ + L3- = ZnH2L+ ([3]; 0.30 M NaCl, T = 298.1 K): 27.42±0.08
log β, Zn2+ + H+ + L3- = ZnHL ([3]; 0.30 M NaCl, T = 298.1 K): 19.85±0.06
log β, Zn2+ + L3- = ZnL- ([3]; 0.30 M NaCl, T = 298.1 K): 9.97±0.04
log β, Zn2+ + 2H+ + L3- = ZnH2L+ ([3]; 0.70 M NaCl, T = 298.1 K): 27.19±0.12
log β, Zn2+ + H+ + L3- = ZnHL ([3]; 0.70 M NaCl, T = 298.1 K): 19.34±0.09
log β, Zn2+ + L3- = ZnL- ([3]; 0.70 M NaCl, T = 298.1 K): 9.39±0.05
log β, Zn2+ + 2H+ + L3- = ZnH2L+ ([3]; 1.00 M NaCl, T = 298.1 K): 27.25±0.08
log β, Zn2+ + H+ + L3- = ZnHL ([3]; 1.00 M NaCl, T = 298.1 K): 19.38±0.06
log β, Zn2+ + L3- = ZnL- ([3]; 1.00 M NaCl, T = 298.1 K): 9.32±0.04
decrease of the 1:1 zinc(II) stability constant ([3]; between 0.05 and 1.00 M NaCl): 21%
logβ0, Zn2+ + 2H+ + L3- = ZnH2L+ ([3]; intrinsic, T = 298.1 K): 29.872±0.027
logβ0, Zn2+ + H+ + L3- = ZnHL ([3]; intrinsic, T = 298.1 K): 22.105±0.026
logβ0, Zn2+ + L3- = ZnL- ([3]; intrinsic, T = 298.1 K): 12.027±0.039
C, Zn2+ + 2H+ + L3- = ZnH2L+ [3, 6]: 0.009±0.051
C, Zn2+ + H+ + L3- = ZnHL [3, 6]: -0.075±0.053
C, Zn2+ + L3- = ZnL- [3, 6]: -0.486±0.077
log β, 2H+ + L3− = H2L− ([4]; 0.05 M NaCl, T = 298.1 K): 20.94 ± 0.09
log β, 3H+ + L3− = H3L ([4]; 0.05 M NaCl, T = 298.1 K): 30.05 ± 0.12
log β, 4H+ + L3− = H4L+ ([4]; 0.05 M NaCl, T = 298.1 K): 38.83 ± 0.14
log β, H+ + L3− = HL2− ([4]; 0.05 M NaCl, T = 298.1 K): 11.07 ± 0.07
log β, 2H+ + L3− = H2L− ([4]; 0.15 M NaCl, T = 298.1 K): 20.25 ± 0.06
log β, 3H+ + L3− = H3L ([4]; 0.15 M NaCl, T = 298.1 K): 29.10 ± 0.09
log β, 4H+ + L3− = H4L+ ([4]; 0.15 M NaCl, T = 298.1 K): 37.46 ± 0.13
log β, H+ + L3− = HL2− ([4]; 0.15 M NaCl, T = 298.1 K): 10.74 ± 0.04
log β, 2H+ + L3− = H2L− ([4]; 0.30 M NaCl, T = 298.1 K): 19.84 ± 0.04
log β, 3H+ + L3− = H3L ([4]; 0.30 M NaCl, T = 298.1 K): 28.61 ± 0.07
log β, 4H+ + L3− = H4L+ ([4]; 0.30 M NaCl, T = 298.1 K): 37.00 ± 0.10
log β, H+ + L3− = HL2− ([4]; 0.30 M NaCl, T = 298.1 K): 10.36 ± .02
log β, 2H+ + L3− = H2L− ([4]; 0.70 M NaCl, T = 298.1 K): 19.77 ± 0.04
log β, 3H+ + L3− = H3L ([4]; 0.70 M NaCl, T = 298.1 K): 28.60 ± 0.08
log β, 4H+ + L3− = H4L+ ([4]; 0.70 M NaCl, T = 298.1 K): 36.97 ± 0.16
log β, H+ + L3− = HL2− ([4]; 0.70 M NaCl, T = 298.1 K): 10.35 ± 0.02
log β, 2H+ + L3− = H2L− ([4]; 1.00 M NaCl, T = 298.1 K): 19.77 ± 0.08
log β, 3H+ + L3− = H3L ([4]; 1.00 M NaCl, T = 298.1 K): 28.57 ± 0.12
log β, 4H+ + L3− = H4L+ ([4]; 1.00 M NaCl, T = 298.1 K): 36.92 ± 0.14
log β, H+ + L3− = HL2− ([4]; 1.00 M NaCl, T = 298.1 K): 10.14 ± 0.06
logβ^0, 2H+ + L3− = H2L− ([4]; intrinsic, T = 298.1 K): 21.530 ± 0.006
logβ^0, 3H+ + L3− = H3L ([4]; intrinsic, T = 298.1 K): 30.691 ± 0.012
logβ^0, 4H+ + L3− = H4L+ ([4]; intrinsic, T = 298.1 K): 39.250 ± 0.023
logβ^0, H+ + L3− = HL2− ([4]; intrinsic, T = 298.1 K): 11.491 ± 0.003
C, 3H+ + L3− = H3L [4, 6]: 0.194 ± 0.012
